Blank lines part the entries; values can stand above or below the compound they belong to. Numbered stars: 1 amine (or outer) side, 2 acyl side, 3 side chain; on linkers, the order of the positions; unused ones are H or OH. Bridge positions count the residues as written; N and C are the ends. Square brackets hold non-standard residues; d marks the D form. Peptide text beside a SMILES is read from it. * marks the point of attachment. 2Thenoyl(5-Cl) = O=C(c1ccc(Cl)s1)*; Benzoyl(4-Cl) = O=C(c1ccc(Cl)cc1)*; Cysteamide = C(CS[*:3])N[*:1]; X1 = O=C(/C=C/c1ccccc1)*; Api = NC1(C(=O)O)CCNCC1; Mpa = O=C(O)CCS
Target: MDM2 (Homo sapiens, UniProt Q00987)
Assay: MDM2 binding screen: displacement of fluorescent p53 peptide probe FP53 (fluorescence polarization)
Conditions: for fraction fluorescent probe displaced, Screen: initial screen; for fraction fluorescent probe displaced, Screen / fraction fluorescent probe displaced, Replicate: crude macrocycle reactions
Method in brief: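 Macrocycle reaction products at a final 10 µM were tested for displacement of a p53-based fluorescent peptide from human MDM2. Fluorescence anisotropy (ex 485/em 535 nm) was read once per macrocycle at 25 °C.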

[1] = crude reaction of macrocycle scaffold with Acid 14, (initial screen)
[2] = crude reaction of macrocycle scaffold with Acid 14, replicate

MDM2, sequence (Q00987 whole entry): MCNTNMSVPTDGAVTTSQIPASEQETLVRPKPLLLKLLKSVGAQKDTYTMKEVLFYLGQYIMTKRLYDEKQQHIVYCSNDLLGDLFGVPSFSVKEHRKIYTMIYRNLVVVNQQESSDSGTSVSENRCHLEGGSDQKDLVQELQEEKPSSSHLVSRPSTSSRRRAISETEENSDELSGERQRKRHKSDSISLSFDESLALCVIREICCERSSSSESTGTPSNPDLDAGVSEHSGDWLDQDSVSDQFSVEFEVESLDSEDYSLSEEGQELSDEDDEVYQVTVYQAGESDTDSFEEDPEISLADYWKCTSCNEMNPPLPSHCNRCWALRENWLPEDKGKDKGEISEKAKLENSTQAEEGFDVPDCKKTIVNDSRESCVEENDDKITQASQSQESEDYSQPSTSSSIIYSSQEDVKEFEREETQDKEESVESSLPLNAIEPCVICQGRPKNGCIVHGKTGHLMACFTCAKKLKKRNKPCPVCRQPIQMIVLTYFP

SMILES: O=C1CCSSCCNC(=O)C(Cc2c[nH]c3ccccc23)NC(=O)C2CCCN(C2)C(=O)C2(CCN(C(=O)C=Cc3ccccc3)CC2)N1 (centres unmarked) [X D6 B4 W Acid 91]
fraction fluorescent probe displaced, Screen (Acid 91): 0.11
fraction fluorescent probe displaced, Replicate (Acid 91, replicate): 0.0168

SMILES: O=C1CCSSCCNC(=O)[C@H](Cc2ccccc2)NC(=O)c2cccc(c2)CNC(=O)C2(CCN(C(=O)/C=C/c3ccccc3)CC2)N1 [X D6 B5 F Acid 91]
fraction fluorescent probe displaced, Screen (Acid 91): -0.05
fraction fluorescent probe displaced, Replicate (Acid 91, replicate): -0.0333

SMILES: O=C1CCSSCCNC(=O)C(Cc2c[nH]c3ccccc23)NC(=O)c2cccc(c2)CNC(=O)C2(CCN(C(=O)c3ccc(Cl)s3)CC2)N1 (centres unmarked) [X D6 B5 W Acid 14]
fraction fluorescent probe displaced, Screen (Acid 14): 0.23
fraction fluorescent probe displaced, Replicate (Acid 14, replicate): 0.25

SMILES: O=C1CCSSCCNC(=O)[C@H](Cc2c[nH]c3ccccc23)NC(=O)c2cccc(c2)CNC(=O)C2(CCN(C(=O)c3ccc(Cl)cc3)CC2)N1 [X D6 B5 W Acid 25]
fraction fluorescent probe displaced, Screen (Acid 25): 0.25
fraction fluorescent probe displaced, Replicate (Acid 25, replicate): 0.22

SMILES: O=C1CCSSCCNC(=O)[C@@H]2CCCN2C(=O)[C@H](Cc2ccccc2)NC(=O)C2(CCN(C(=O)/C=C/c3ccccc3)CC2)N1 [X D6 F B1 Acid 91] ([Mpa][Api](X1)FP-Cysteamide; disulfide 1-C)
fraction fluorescent probe displaced, Screen (Acid 91): -0.05
fraction fluorescent probe displaced, Replicate (Acid 91, replicate): -0.08

SMILES: O=C1CCNC(=O)[C@H](Cc2ccccc2)NC(=O)C2(CCN(C(=O)/C=C/c3ccccc3)CC2)NC(=O)CCSSCCN1 [X D6 F B2 Acid 91]
fraction fluorescent probe displaced, Screen (Acid 91): 0.14
fraction fluorescent probe displaced, Replicate (Acid 91, replicate): 0.04

SMILES: O=C1CCSSCCNC(=O)c2cccc(c2)CNC(=O)[C@H](Cc2ccccc2)NC(=O)C2(CCN(C(=O)c3ccc(Cl)s3)CC2)N1 [X D6 F B5 Acid 14]
fraction fluorescent probe displaced, Screen (Acid 14): -0.0337
fraction fluorescent probe displaced, Replicate (Acid 14, replicate): 0.12

SMILES: O=C1CCSSCCNC(=O)c2cccc(c2)CNC(=O)C(Cc2ccccc2)NC(=O)C2(CCN(C(=O)C=Cc3ccccc3)CC2)N1 (centres unmarked) [X D6 F B5 Acid 91]
fraction fluorescent probe displaced, Screen (Acid 91): -0.05
fraction fluorescent probe displaced, Replicate (Acid 91, replicate): -0.00827

SMILES: O=C1CCSSCCNC(=O)[C@@H]2CCCN2C(=O)[C@H](Cc2c[nH]c3ccccc23)NC(=O)C2(CCN(C(=O)c3ccc(Cl)cc3)CC2)N1 [X D6 W B1 Acid 25] ([Mpa][Api](Benzoyl(4-Cl))WP-Cysteamide; disulfide 1-C)
fraction fluorescent probe displaced, Screen (Acid 25): 0.25
fraction fluorescent probe displaced, Replicate (Acid 25, replicate): 0.20

SMILES: O=C1CCSSCCNC(=O)[C@@H]2CCCN2C(=O)[C@H](Cc2c[nH]c3ccccc23)NC(=O)C2(CCN(C(=O)/C=C/c3ccccc3)CC2)N1 [X D6 W B1 Acid 91] ([Mpa][Api](X1)WP-Cysteamide; disulfide 1-C)
fraction fluorescent probe displaced, Screen (Acid 91): 0.08
fraction fluorescent probe displaced, Replicate (Acid 91, replicate): 0.04

SMILES: O=C1CCNC(=O)[C@H](Cc2c[nH]c3ccccc23)NC(=O)C2(CCN(C(=O)c3ccc(Cl)cc3)CC2)NC(=O)CCSSCCN1 [X D6 W B2 Acid 25]
fraction fluorescent probe displaced, Screen (Acid 25): 0.09
fraction fluorescent probe displaced, Replicate (Acid 25, replicate): 0.10

SMILES: O=C1CCNC(=O)[C@H](Cc2c[nH]c3ccccc23)NC(=O)C2(CCN(C(=O)/C=C/c3ccccc3)CC2)NC(=O)CCSSCCN1 [X D6 W B2 Acid 91]
fraction fluorescent probe displaced, Screen (Acid 91): 0.14
fraction fluorescent probe displaced, Replicate (Acid 91, replicate): 0.07

SMILES: O=C1CCSSCCNC(=O)[C@H]2CCCN(C2)C(=O)[C@H](Cc2c[nH]c3ccccc23)NC(=O)C2(CCN(C(=O)c3ccc(Cl)cc3)CC2)N1 [X D6 W B4 Acid 25]
fraction fluorescent probe displaced, Screen (Acid 25): 0.28
fraction fluorescent probe displaced, Replicate (Acid 25, replicate): 0.22

SMILES: O=C1CCSSCCNC(=O)[C@H]2CCCN(C2)C(=O)[C@H](Cc2c[nH]c3ccccc23)NC(=O)C2(CCN(C(=O)/C=C/c3ccccc3)CC2)N1 [X D6 W B4 Acid 91]
fraction fluorescent probe displaced, Screen (Acid 91): 0.14
fraction fluorescent probe displaced, Replicate (Acid 91, replicate): 0.07

SMILES: O=C1CCSSCCNC(=O)c2cccc(c2)CNC(=O)C(Cc2c[nH]c3ccccc23)NC(=O)C2(CCN(C(=O)c3ccc(Cl)s3)CC2)N1 (centres unmarked) [X D6 W B5 Acid 14]
fraction fluorescent probe displaced, Screen (Acid 14): 0.11
fraction fluorescent probe displaced, Replicate (Acid 14, replicate): 0.25

SMILES: O=C1CCSSCCNC(=O)c2cccc(c2)CNC(=O)[C@H](Cc2c[nH]c3ccccc23)NC(=O)C2(CCN(C(=O)/C=C/c3ccccc3)CC2)N1 [X D6 W B5 Acid 91]
fraction fluorescent probe displaced, Screen (Acid 91): -0.05
fraction fluorescent probe displaced, Replicate (Acid 91, replicate): 0.07

SMILES: O=C1CCNC(=O)C2CN(C(=O)C=Cc3ccccc3)CCN2C(=O)CCSSCCNC(=O)C(Cc2c[nH]c3ccccc23)N1 (centres unmarked) [X D7 B2 W Acid 91]
fraction fluorescent probe displaced, Screen (Acid 91): 0.11
fraction fluorescent probe displaced, Replicate (Acid 91, replicate): 0.07

SMILES: O=C1NC(Cc2c[nH]c3ccccc23)C(=O)NCCSSCCC(=O)N2CCN(C(=O)c3ccc(Cl)cc3)CC2C(=O)NCc2cccc1c2 (centres unmarked) [X D7 B5 W Acid 25]
fraction fluorescent probe displaced, Screen (Acid 25): 0.22
fraction fluorescent probe displaced, Replicate (Acid 25, replicate): 0.20

SMILES: O=C1NCCSSCCC(=O)N2CCN(C(=O)C=Cc3ccccc3)CC2C(=O)NC(Cc2ccccc2)C(=O)NCc2cccc1c2 (centres unmarked) [X D7 F B5 Acid 91]
fraction fluorescent probe displaced, Screen (Acid 91): 0.0563
fraction fluorescent probe displaced, Replicate (Acid 91, replicate): 0.04

SMILES: O=C1NC(Cc2c[nH]c3ccccc23)C(=O)N2CCCC2C(=O)NCCSSCCC(=O)N2CCN(C(=O)C=Cc3ccccc3)CC12 (centres unmarked) [X D7 W B1 Acid 91]
fraction fluorescent probe displaced, Screen (Acid 91): -0.0241
fraction fluorescent probe displaced, Replicate (Acid 91, replicate): -0.00827

The next lines start with the values.

fraction fluorescent probe displaced (crude reaction of macrocycle scaffold with Acid 25, (initial screen)): 0.09
fraction fluorescent probe displaced (crude reaction of macrocycle scaffold with Acid 25, replicate): 0.15
SMILES: O=C1CCSSCCNC(=O)[C@H](Cc2ccccc2)NC(=O)[C@H]2CCCN(C2)C(=O)C2(CCN(C(=O)c3ccc(Cl)cc3)CC2)N1 [X D6 B4 F + Acid 25]

fraction fluorescent probe displaced, Screen (Acid 14): 0.17
fraction fluorescent probe displaced, Replicate (Acid 14, replicate): 0.25
SMILES: O=C1CCSSCCNC(=O)[C@H](Cc2c[nH]c3ccccc23)NC(=O)[C@H]2CCCN(C2)C(=O)C2(CCN(C(=O)c3ccc(Cl)s3)CC2)N1 [X D6 B4 W Acid 14]

fraction fluorescent probe displaced, Screen (Acid 14): 0.053
fraction fluorescent probe displaced, Replicate (Acid 14, replicate): 0.07
SMILES: O=C1CCSSCCNC(=O)[C@@H]2CCCN2C(=O)[C@H](Cc2ccccc2)NC(=O)C2(CCN(C(=O)c3ccc(Cl)s3)CC2)N1 [X D6 F B1 Acid 14] ([Mpa][Api](2Thenoyl(5-Cl))FP-Cysteamide; disulfide 1-C)

fraction fluorescent probe displaced, Screen (Acid 25): 0.15
fraction fluorescent probe displaced, Replicate (Acid 25, replicate): 0.22
SMILES: O=C1CCSSCCNC(=O)[C@@H]2CCCN2C(=O)[C@H](Cc2ccccc2)NC(=O)C2(CCN(C(=O)c3ccc(Cl)cc3)CC2)N1 [X D6 F B1 Acid 25] ([Mpa][Api](Benzoyl(4-Cl))FP-Cysteamide; disulfide 1-C)

fraction fluorescent probe displaced, Screen (Acid 14): 0.0241
fraction fluorescent probe displaced, Replicate (Acid 14, replicate): 0.07
SMILES: O=C1CCNC(=O)[C@H](Cc2ccccc2)NC(=O)C2(CCN(C(=O)c3ccc(Cl)s3)CC2)NC(=O)CCSSCCN1 [X D6 F B2 Acid 14]

fraction fluorescent probe displaced (crude reaction of macrocycle scaffold with Acid 91, (initial screen)): 0.03
fraction fluorescent probe displaced (crude reaction of macrocycle scaffold with Acid 91, replicate): -0.00827
SMILES: O=C1CCSSCCNC(=O)[C@H]2CCCN(C2)C(=O)[C@H](Cc2ccccc2)NC(=O)C2(CCN(C(=O)/C=C/c3ccccc3)CC2)N1 [X D6 F B4 + Acid 91]

fraction fluorescent probe displaced, Screen (Acid 14): 0.11
fraction fluorescent probe displaced, Replicate (Acid 14, replicate): 0.07
SMILES: O=C1CCSSCCNC(=O)[C@@H]2CCCN2C(=O)[C@H](Cc2c[nH]c3ccccc23)NC(=O)C2(CCN(C(=O)c3ccc(Cl)s3)CC2)N1 [X D6 W B1 Acid 14] ([Mpa][Api](2Thenoyl(5-Cl))WP-Cysteamide; disulfide 1-C)

fraction fluorescent probe displaced, Screen (Acid 25): 0.0569
fraction fluorescent probe displaced, Replicate (Acid 25, replicate): 0.12
SMILES: O=C1NCCSSCCC(=O)N2CCN(C(=O)c3ccc(Cl)cc3)CC2C(=O)N2CCCC2C(=O)NC1Cc1ccccc1 (centres unmarked) [X D7 B1 F Acid 25]

fraction fluorescent probe displaced, Screen (Acid 14): -0.00483
fraction fluorescent probe displaced, Replicate (Acid 14, replicate): 0.07
SMILES: O=C1NCCSSCCC(=O)N2CCN(C(=O)c3ccc(Cl)s3)CC2C(=O)N2CCCC2C(=O)NC1Cc1c[nH]c2ccccc12 (centres unmarked) [X D7 B1 W Acid 14]

fraction fluorescent probe displaced, Screen (Acid 14): 0.11
fraction fluorescent probe displaced, Replicate (Acid 14, replicate): 0.12
SMILES: O=C1CCNC(=O)C2CN(C(=O)c3ccc(Cl)s3)CCN2C(=O)CCSSCCNC(=O)C(Cc2c[nH]c3ccccc23)N1 (centres unmarked) [X D7 B2 W Acid 14]

fraction fluorescent probe displaced [1]: -0.0337
fraction fluorescent probe displaced [2]: 0.07
SMILES: O=C1NC(Cc2ccccc2)C(=O)NCCSSCCC(=O)N2CCN(C(=O)c3ccc(Cl)s3)CC2C(=O)N2CCCC1C2 (centres unmarked) [X D7 B4 F + Acid 14]

fraction fluorescent probe displaced, Screen (Acid 91): 0.08
fraction fluorescent probe displaced, Replicate (Acid 91, replicate): 0.07
SMILES: O=C1NC(Cc2c[nH]c3ccccc23)C(=O)NCCSSCCC(=O)N2CCN(C(=O)C=Cc3ccccc3)CC2C(=O)N2CCCC1C2 (centres unmarked) [X D7 B4 W Acid 91]

fraction fluorescent probe displaced, Screen (Acid 25): -0.04
fraction fluorescent probe displaced, Replicate (Acid 25, replicate): 0.12
SMILES: O=C1NC(Cc2ccccc2)C(=O)NCCSSCCC(=O)N2CCN(C(=O)c3ccc(Cl)cc3)CC2C(=O)NCc2cccc1c2 (centres unmarked) [X D7 B5 F Acid 25]

fraction fluorescent probe displaced, Screen (Acid 25): 0.09
fraction fluorescent probe displaced, Replicate (Acid 25, replicate): 0.07
SMILES: O=C1NC(Cc2ccccc2)C(=O)N2CCCC2C(=O)NCCSSCCC(=O)N2CCN(C(=O)c3ccc(Cl)cc3)CC12 (centres unmarked) [X D7 F B1 Acid 25]

fraction fluorescent probe displaced, Screen (Acid 25): -0.00813
fraction fluorescent probe displaced, Replicate (Acid 25, replicate): 0.07
SMILES: O=C1CCNC(=O)C(Cc2ccccc2)NC(=O)C2CN(C(=O)c3ccc(Cl)cc3)CCN2C(=O)CCSSCCN1 (centres unmarked) [X D7 F B2 Acid 25]

fraction fluorescent probe displaced [1]: 0.0241
fraction fluorescent probe displaced [2]: -0.00432
SMILES: O=C1NCCSSCCC(=O)N2CCN(C(=O)c3ccc(Cl)s3)CC2C(=O)NC(Cc2ccccc2)C(=O)N2CCCC1C2 (centres unmarked) [X D7 F B4 + Acid 14]

fraction fluorescent probe displaced, Screen (Acid 25): 0.12
fraction fluorescent probe displaced, Replicate (Acid 25, replicate): 0.43
SMILES: O=C1NCCSSCCC(=O)N2CCN(C(=O)c3ccc(Cl)cc3)CC2C(=O)NC(Cc2ccccc2)C(=O)NCc2cccc1c2 (centres unmarked) [X D7 F B5 Acid 25]

From PMC9250534, “Synthesis and direct assay of large macrocycle diversities by combinatorial late-stage modification at picomole scale” (Nature Communications, 2022)
